Laboratory results reported in US6423714B1, “Cyclohexene derivatives useful as antagonists of the motilin receptor” (Ortho McNeil-Pharmaceutical, Inc.., priority 2000, dated 2002).

Target: T1, motilin receptors located on the colon of mature rabbits (Oryctolagus cuniculus, UniProt G1T803)
T1 construct: The muscle tissues were homogenized in 10 volumes of buffer; from tissue; host or cells: rabbit colon smooth muscle, crude membrane homogenate
Assay: Competition with radiolabeled (I125) porcine motilin for motilin receptors in rabbit colon membranes
Type: binding
Conditions: @ 50 nM; I125 motilin (porcine) 25-40 pM; rabbit colon smooth muscle membranes; 30 min at 30° C.
Experimental: The compounds of the invention were tested for their ability to compete with radiolabeled motilin (porcine) for the motilin receptors located on the colon of mature rabbits. The colon from mature New Zealand rabbits was removed, dissected free from the mucosa and serosa layers, and diced into small pieces. The muscle tissues were homogenized in 10 volumes of buffer (50 mM Tris-Cl, 10 mM MgCl2, 0.1 mg/mL bactracin, and 0.25 mM Peflabloc, pH 7.5) in a Polytron (29,000 rpm, 4×15 seconds). The homogenate was centrifuged at 1000×g for 15 min. and the supernatant discarded. The pellet was washed twice before being suspended in homogenizing buffer. This crude homogenate was then passed first through a 19 gauge needle then a 23 gauge needle to further suspend the material and stored at −80° C. […] The pellet was counted in the gamma counter to determine the percentage of […] motilin and thereby the percent inhibition of the test compound.
% inhibition was determined for some compounds by standard techniques: […]

T1 sequence (G1T803 1-400): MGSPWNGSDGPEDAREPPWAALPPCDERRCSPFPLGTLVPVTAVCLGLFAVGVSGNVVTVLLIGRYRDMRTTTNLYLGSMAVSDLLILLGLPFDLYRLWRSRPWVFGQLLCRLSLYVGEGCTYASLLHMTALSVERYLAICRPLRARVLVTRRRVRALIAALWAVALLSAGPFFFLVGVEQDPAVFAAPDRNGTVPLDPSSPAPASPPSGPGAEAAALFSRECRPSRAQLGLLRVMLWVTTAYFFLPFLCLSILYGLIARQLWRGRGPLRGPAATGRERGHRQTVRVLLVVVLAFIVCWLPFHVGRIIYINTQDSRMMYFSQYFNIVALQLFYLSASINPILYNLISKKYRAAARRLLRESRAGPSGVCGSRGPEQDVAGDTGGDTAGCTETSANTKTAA

Molecule	% inhibition [%]
3-Benzyl-3-trichloroacetamido-1-N[(3-(2-morpholinoethoxy)phenyl)amino]methylcyclohexene [Example 7]	59
O=C(Nc1ccccc1)N(CC1=CC(Cc2ccccc2)(NC(=O)C(Cl)(Cl)Cl)CCC1)c1cccc(OCCN2CCOCC2)c1 (centres unmarked) [Example 6, 3-Benzyl-3-trichloroacetamido-1-(N-phenylaminocarbonyl)-N-[(3-(2-morpholinoethoxy)phenyl)amino]methylcyclohexene]	62
